Results reported in patent US9925193B2, “Thioether derivatives as protein kinase inhibitors” (KTB TUMORFORSCHUNGSGESELLSCHAFT MBH, priority 2012, dated 2018).

Tests used:
[1] = target: T1, AXL (Homo sapiens, UniProt P30530); test: 33PanQinase Activity Assay, AXL; format: biochemical; conditions: recombinant human protein kinase, 1 μM [γ-33P]-ATP, 30° C. 80 minutes
T1 construct: made in house; host or cells: Sf9 insect cells (baculovirus)
T1 sequence (P30530 26-894): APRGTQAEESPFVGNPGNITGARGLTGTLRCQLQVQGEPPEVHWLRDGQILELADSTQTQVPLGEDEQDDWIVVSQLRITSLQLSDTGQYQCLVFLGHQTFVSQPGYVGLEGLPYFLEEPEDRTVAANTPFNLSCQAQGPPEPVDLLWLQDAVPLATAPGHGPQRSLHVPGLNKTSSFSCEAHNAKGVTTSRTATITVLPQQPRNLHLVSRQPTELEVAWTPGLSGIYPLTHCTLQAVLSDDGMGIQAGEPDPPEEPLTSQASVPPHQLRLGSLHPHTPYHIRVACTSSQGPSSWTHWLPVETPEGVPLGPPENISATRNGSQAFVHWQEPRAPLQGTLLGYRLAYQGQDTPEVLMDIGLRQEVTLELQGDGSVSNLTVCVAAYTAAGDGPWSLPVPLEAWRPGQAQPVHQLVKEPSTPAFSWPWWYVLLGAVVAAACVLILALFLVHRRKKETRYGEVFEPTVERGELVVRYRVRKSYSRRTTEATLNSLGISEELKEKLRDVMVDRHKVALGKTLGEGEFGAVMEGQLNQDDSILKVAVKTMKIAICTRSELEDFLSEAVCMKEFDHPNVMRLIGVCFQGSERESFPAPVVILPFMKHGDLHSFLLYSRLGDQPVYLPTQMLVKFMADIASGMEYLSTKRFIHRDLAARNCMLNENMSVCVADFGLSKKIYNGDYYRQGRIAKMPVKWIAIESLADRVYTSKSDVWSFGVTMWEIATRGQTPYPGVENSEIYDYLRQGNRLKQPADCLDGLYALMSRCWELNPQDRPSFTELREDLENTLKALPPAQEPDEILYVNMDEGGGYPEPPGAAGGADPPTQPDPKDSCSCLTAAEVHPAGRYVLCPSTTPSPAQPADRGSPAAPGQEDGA
Description: (§1) The effect of the thioether derivatives 8a-v and 9a-i was tested on recombinant, human protein kinases. All protein kinases were expressed in Sf9 insect cells as human recombinant GST-fusion proteins or as His-tagged proteins by means of the baculovirus expression system. Protein kinases were purified by affinity chromatography using either GSH-agarose or Ni-NTH-agarose. The purity and identity of each was checked by SDS-PAGE/silver staining and by western blot analysis with specific antibodies.
(§2) A proprietary protein kinase assay (^33PanQinase® Activity Assay) was used for measuring the kinase activity. All kinase assays were performed in 96-well FlashPlates™ in a 50 μl reaction volume. The assay for all enzymes contained 60 mM HEPES-NaOH, pH 7.5, 3 mM MgCl2, 3 mM MnCl2, 3 μM Na-orthovanadate, 1.2 mM DTT, 50 μg/ml PEG20000 and 1 μM [γ-^33P]-ATP (approx. 5×10^5 cpm per well).
(§3) The reaction cocktails were incubated at 30° C. for 80 minutes. The reaction was stopped with 50 μl of 2% (v/v) H3PO4, plates were aspirated and washed two times with 200 μl of 0.9% (w/v) NaCl. Incorporation of ^33Pi was determined with a microplate scintillation counter. All assays were performed with a BeckmanCoulter/Sagian robotic system.

[2] = target: T2, VEGF-R2 (Homo sapiens, UniProt P35968); test: 33PanQinase Activity Assay, VEGF-R2; format: biochemical; conditions: recombinant human protein kinase, 1 μM [γ-33P]-ATP, 30° C. 80 minutes
T2 construct: made in house; host or cells: Sf9 insect cells (baculovirus)
Description: as §1, §2, §3

[3] = target: T3, SRC (Homo sapiens, UniProt P12931); test: 33PanQinase Activity Assay, SRC; format: biochemical; conditions: recombinant human protein kinase, 1 μM [γ-33P]-ATP, 30° C. 80 minutes
T3 construct: made in house; host or cells: Sf9 insect cells (baculovirus)
Description: as §1, §2, §3

[4] = target: T4, IGF1-R (Homo sapiens, UniProt P08069); test: 33PanQinase Activity Assay, IGF1-R; format: biochemical; conditions: recombinant human protein kinase, 1 μM [γ-33P]-ATP, 30° C. 80 minutes
T4 construct: made in house; host or cells: Sf9 insect cells (baculovirus)
Description: as §1, §2, §3

[5] = target: T5, PIM1 (Homo sapiens, UniProt P11309); test: 33PanQinase Activity Assay, PIM1; format: biochemical; conditions: recombinant human protein kinase, 1 μM [γ-33P]-ATP, 30° C. 80 minutes
T5 construct: made in house; host or cells: Sf9 insect cells (baculovirus)
Description: as §1, §2, §3

[6] = target: T6, FAK (Homo sapiens, UniProt Q05397); test: 33PanQinase Activity Assay, FAK; format: biochemical; conditions: recombinant human protein kinase, 1 μM [γ-33P]-ATP, 30° C. 80 minutes
T6 construct: made in house; host or cells: Sf9 insect cells (baculovirus)
Description: as §1, §2, §3

[7] = target: T7, ALK (Homo sapiens, UniProt Q9UM73); test: 33PanQinase Activity Assay, ALK; format: biochemical; conditions: recombinant human protein kinase, 1 μM [γ-33P]-ATP, 30° C. 80 minutes
T7 construct: made in house; host or cells: Sf9 insect cells (baculovirus)
Description: as §1, §2, §3

[8] = target: T8, KIT wt (Homo sapiens, UniProt P10721); test: 33PanQinase Activity Assay, KIT wt; format: biochemical; conditions: recombinant human protein kinase, 1 μM [γ-33P]-ATP, 30° C. 80 minutes
T8 construct: made in house; host or cells: Sf9 insect cells (baculovirus)
Description: as §1, §2, §3

T7 sequence (Q9UM73 19-1620): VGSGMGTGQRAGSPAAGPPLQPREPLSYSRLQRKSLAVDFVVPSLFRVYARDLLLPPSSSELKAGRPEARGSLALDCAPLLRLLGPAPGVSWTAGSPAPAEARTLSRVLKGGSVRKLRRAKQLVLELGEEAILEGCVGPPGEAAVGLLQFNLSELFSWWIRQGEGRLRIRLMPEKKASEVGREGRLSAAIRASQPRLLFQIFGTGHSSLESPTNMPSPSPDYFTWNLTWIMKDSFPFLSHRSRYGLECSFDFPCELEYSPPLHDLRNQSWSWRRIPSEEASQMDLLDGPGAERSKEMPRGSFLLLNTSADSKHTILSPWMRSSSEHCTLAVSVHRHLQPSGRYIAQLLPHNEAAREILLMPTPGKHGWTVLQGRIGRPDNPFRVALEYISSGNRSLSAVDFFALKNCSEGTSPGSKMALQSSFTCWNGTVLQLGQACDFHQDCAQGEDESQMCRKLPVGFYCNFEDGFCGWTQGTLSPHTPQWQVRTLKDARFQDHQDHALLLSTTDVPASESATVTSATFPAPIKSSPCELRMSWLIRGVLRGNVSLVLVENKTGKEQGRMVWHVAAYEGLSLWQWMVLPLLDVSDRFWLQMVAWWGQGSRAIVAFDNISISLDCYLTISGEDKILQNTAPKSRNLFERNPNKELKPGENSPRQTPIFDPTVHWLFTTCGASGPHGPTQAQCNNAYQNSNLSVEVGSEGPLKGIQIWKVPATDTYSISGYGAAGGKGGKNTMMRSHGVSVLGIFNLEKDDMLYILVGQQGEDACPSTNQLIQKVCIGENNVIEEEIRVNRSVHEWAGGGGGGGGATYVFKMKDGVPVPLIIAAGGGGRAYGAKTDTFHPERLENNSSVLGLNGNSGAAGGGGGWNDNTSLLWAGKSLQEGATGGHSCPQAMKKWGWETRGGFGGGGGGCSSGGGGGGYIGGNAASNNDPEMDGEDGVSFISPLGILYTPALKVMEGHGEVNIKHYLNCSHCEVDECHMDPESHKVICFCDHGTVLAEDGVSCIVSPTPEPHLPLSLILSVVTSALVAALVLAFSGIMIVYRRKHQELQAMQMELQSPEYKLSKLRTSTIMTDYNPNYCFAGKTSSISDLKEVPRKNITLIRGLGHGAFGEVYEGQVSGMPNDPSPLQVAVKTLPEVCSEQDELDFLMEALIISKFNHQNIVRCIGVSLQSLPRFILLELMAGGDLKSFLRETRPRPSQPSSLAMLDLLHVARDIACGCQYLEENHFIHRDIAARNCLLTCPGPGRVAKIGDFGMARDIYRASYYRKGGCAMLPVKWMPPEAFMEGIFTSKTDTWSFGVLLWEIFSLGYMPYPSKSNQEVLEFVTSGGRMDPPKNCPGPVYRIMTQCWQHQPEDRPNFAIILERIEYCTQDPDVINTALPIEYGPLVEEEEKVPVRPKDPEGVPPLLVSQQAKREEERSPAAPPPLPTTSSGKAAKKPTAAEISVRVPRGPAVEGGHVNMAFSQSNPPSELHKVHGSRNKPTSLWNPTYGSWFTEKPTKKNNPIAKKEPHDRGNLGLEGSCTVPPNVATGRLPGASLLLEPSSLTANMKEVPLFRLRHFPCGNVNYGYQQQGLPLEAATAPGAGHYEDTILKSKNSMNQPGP
T8 sequence (P10721 26-976): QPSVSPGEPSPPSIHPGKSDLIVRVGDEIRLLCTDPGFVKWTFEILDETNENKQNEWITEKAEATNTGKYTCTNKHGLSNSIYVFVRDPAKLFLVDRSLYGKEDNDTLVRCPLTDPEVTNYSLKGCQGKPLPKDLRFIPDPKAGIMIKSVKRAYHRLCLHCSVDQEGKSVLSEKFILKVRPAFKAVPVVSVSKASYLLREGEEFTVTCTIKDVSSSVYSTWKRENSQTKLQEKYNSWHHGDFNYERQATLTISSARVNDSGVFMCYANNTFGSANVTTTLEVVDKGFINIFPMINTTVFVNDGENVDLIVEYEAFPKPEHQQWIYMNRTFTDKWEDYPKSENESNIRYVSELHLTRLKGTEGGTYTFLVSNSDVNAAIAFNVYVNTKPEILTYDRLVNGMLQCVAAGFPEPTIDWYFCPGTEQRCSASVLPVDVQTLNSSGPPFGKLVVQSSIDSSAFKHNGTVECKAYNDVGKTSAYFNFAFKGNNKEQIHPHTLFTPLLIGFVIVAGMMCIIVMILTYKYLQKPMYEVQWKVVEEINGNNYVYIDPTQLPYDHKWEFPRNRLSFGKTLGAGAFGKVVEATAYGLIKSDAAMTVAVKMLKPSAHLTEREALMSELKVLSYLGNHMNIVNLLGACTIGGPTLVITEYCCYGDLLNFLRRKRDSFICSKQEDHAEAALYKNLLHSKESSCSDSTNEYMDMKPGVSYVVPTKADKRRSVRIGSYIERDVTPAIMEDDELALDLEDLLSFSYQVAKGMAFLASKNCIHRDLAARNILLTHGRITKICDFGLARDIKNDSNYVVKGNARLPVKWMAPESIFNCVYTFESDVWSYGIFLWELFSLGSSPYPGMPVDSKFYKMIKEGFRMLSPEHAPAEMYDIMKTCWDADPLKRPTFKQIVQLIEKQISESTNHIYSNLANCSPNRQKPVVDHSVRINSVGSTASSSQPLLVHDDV
T6 sequence (Q05397 whole entry): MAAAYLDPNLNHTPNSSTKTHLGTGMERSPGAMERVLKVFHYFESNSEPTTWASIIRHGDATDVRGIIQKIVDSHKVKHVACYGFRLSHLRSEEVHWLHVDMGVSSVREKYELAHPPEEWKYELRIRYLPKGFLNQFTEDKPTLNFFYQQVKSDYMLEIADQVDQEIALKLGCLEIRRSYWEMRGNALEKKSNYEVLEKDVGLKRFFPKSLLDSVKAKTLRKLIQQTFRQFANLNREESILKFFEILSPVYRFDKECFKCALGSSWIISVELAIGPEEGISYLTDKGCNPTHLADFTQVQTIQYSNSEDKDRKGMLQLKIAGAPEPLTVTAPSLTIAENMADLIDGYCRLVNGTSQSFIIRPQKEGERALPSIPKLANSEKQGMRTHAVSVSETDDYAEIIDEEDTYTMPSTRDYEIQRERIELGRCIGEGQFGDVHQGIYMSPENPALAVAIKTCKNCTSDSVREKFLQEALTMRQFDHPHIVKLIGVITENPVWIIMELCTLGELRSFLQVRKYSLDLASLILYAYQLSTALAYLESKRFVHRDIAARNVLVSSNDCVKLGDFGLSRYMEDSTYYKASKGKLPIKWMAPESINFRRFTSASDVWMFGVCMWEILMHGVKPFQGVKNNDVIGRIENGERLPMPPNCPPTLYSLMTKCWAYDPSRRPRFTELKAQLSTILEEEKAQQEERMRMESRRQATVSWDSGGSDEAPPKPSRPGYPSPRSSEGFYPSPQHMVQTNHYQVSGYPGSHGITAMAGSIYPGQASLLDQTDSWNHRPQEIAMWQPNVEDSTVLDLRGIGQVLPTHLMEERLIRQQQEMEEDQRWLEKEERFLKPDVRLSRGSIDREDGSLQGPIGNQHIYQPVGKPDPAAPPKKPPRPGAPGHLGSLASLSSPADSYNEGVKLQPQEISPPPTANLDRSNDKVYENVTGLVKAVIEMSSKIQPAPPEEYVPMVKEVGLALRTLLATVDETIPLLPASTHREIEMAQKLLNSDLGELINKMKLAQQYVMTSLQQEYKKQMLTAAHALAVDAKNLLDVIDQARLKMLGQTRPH
T3 sequence (P12931 whole entry): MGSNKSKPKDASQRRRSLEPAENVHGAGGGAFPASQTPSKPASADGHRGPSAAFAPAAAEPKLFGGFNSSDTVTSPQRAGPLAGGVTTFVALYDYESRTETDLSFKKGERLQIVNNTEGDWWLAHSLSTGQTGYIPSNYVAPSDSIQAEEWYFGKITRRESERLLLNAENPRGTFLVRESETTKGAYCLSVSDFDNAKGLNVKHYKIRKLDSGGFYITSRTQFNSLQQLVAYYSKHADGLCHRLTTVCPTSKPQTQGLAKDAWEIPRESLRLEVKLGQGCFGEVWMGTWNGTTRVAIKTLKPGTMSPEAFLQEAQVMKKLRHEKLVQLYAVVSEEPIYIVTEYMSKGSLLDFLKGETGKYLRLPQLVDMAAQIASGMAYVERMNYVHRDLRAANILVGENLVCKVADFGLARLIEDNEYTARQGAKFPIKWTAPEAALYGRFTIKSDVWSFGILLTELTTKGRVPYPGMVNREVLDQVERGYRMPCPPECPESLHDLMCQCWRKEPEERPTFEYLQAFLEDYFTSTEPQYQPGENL
T5 sequence (P11309 whole entry): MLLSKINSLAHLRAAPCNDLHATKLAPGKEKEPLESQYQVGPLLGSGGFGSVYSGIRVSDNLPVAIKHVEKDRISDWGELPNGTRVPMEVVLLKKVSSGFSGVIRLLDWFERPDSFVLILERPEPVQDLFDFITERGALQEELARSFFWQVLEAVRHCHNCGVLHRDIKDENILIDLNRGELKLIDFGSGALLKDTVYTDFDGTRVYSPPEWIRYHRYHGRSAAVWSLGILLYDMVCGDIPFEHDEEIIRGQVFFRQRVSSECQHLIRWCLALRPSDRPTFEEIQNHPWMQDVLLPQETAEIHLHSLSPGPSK

| Compound | IC50 [1] | IC50 [2] | IC50 [3] | IC50 [4] | melting point | IC50 [5] | IC50 [6] | IC50 [7] | IC50 [8] |
| --- | --- | --- | --- | --- | --- | --- | --- | --- | --- |
| CC(C)(C)c1nnc(Sc2ncnc3cc(-c4ccc(F)cc4)sc23)o1 [Compound 8g, 2-(tert-Butyl)-5-{[6-(4-fluorophenyl)thieno[3,2-d]pyrimidin-4-yl]thio}-1,3,4-oxadiazole] | 6.19 µM | 4.07 µM | 2.51 µM | 3.28 µM | 197 to 199 °C | 22.9 µM | 4.82 µM | 2.37 µM | – |
| COc1ccc(-c2cc3ncnc(Sc4nnc(-c5ccc(Cl)cc5Cl)o4)c3s2)cc1 [Compound 8q, 2-(2,4-Dichlorophenyl)-5-{[6-(4-methoxyphenyl)thieno[3,2-d]pyrimidin-4-yl]thio}-1,3,4-oxadiazole] | 2.2 µM | – | 0.8 µM | – | 213 to 215 °C | – | 1.5 µM | 1.3 µM | – |
| O=C1CCCCCN1Cc1nnc(Sc2ncnc3cc(-c4ccc(Cl)cc4)sc23)o1 [Compound 9a] | 1.63 µM | – | – | – | – | – | 8.93 µM | 2.16 µM | 0.608 µM |
| Cc1nnc(Sc2ncnc3cc(-c4ccc(Cl)cc4)sc23)s1 [Compound 9i] | 41.7 µM | – | – | – | – | – | > 100 µM | 15 µM | 1.25 µM |
| Fc1ccc(-c2cc3ncnc(Sc4nnc(CN5CCCC5)o4)c3s2)cc1 [Compound 9b] | 6.09 µM | – | – | – | – | – | 15 µM | 3.03 µM | 6.48 µM |
| Fc1ccc(-c2cc3ncnc(Sc4nnc(-c5ccc6c(c5)OCO6)o4)c3s2)cc1 [Compound 9c] | 6.56 µM | – | – | – | – | – | 3.52 µM | 0.935 µM | 4.92 µM |
| CN(C)Cc1nnc(Sc2ncnc3cc(-c4ccc(F)cc4)sc23)o1 [Compound 8c, 1-{5-[(6-{4-Fluorophenyl}thieno[3,2-d]pyrimidin-4-yl)thio]-1,3,4-oxadiazol-2-yl}-N,N-dimethylmethanamine] | 12.3 µM | – | – | – | 170 to 172 °C | – | – | 6.54 µM | 2.76 µM |
| COc1ccc(-c2cc3ncnc(Sc4nnnn4C)c3s2)cc1 [Compound 9g] | 5.8 µM | – | – | – | – | – | 5.99 µM | 2.37 µM | 1.02 µM |
| COc1ccc(-c2cc3ncnc(Sc4nnc(-c5ccc(C(F)(F)F)cc5)o4)c3s2)cc1 [Compound 8o, 2-{[6-(4-Methoxyphenyl)thieno[3,2-d]pyrimidin-4-yl]thio}-5-[4-(trifluoro-methyl)phenyl]-1,3,4-oxadiazole] | 2.4 µM | – | 0.84 µM | – | 227 to 228 °C | – | 1.7 µM | 0.88 µM | – |
| Fc1ccc(-c2cc3ncnc(Sc4nnc(-c5ccccc5)o4)c3s2)cc1 [Compound 8a, 2-{[6-(4-Fluorophenyl)thieno[3,2-d]pyrimidin-4-yl]thio}-5-phenyl-1,3,4-oxadiazole] | 3.16 µM | – | – | – | 223 °C | – | – | 0.987 µM | 1.04 µM |
| Fc1ccc(-c2cc3ncnc(Sc4nnc(-c5ccncc5)o4)c3s2)cc1 [Compound 8b, 2-{[6-(4-Fluorophenyl)thieno[3,2-d]pyrimidin-4-yl]thio}-5-(pyridin-4-yl)-1,3,4-oxadiazole] | 2.64 µM | – | – | – | 232 °C | – | – | 2.94 µM | 1.74 µM |
| c1ccc(Cc2nnc(Sc3ncnc4[nH]c(-c5ccccc5)nc34)o2)cc1 [Compound 8t, 2-Benzyl-5-[(8-phenyl-9H-purin-6-yl)thio]-1,3,4-oxadiazole] | > 100 µM | – | 32 µM | – | 198 to 199 °C | – | 43 µM | 76 µM | – |
